We go through 17 compounds from paper PMC11946194, “Rational Design, Synthesis, and Biological Evaluation of Novel Thiazole/Thiazolidinones Multitarget Anti-Human Immunodeficiency Virus Molecules” (Pharmaceuticals, 2025).

One may read the viability as a read-out of living cells in per cent, often relative to untreated cells. Read a high viability as less harm to the cells. As usually defined, the IC50 is the concentration that inhibits the measured activity by half. By inhibition is commonly meant the share of the control response that was lost under treatment.

Data set [1] can be described thus: Cellular viability, CCK cell viability assay. The format is cell-based. As to conditions: human, MRC-5 cells (normal fetal lung fibroblasts). As to the method: For the evaluation of cytotoxicity, compounds 1–15 were tested in the human normal fetal lung fibroblast MRC-5 cell line using the CCK cell viability assay. Each substance was tested at three different concentrations: 0.1 μM, 1 μM, and 10 μM. […] However, since all viability percentages were above 50%, no CC50 value could be calculated.
The normal human fetal lung fibroblast MRC-5 cell line (SI , 7)was cultured under standard conditions. Compounds were tested at 10 μM, 1 μM, and 0.1 μM. Results are expressed as mean ± standard deviation (SD) from triplicate experiments.
The previously established human normal MRC‐5 (human fetal lung fibroblasts; RRID:CVCL_0440)
approved for vaccine production was obtained, stored and used in a routine manner (1,2) in the
Laboratory of Pharmacology, School of Pharmacy, Aristotle University of Thessaloniki, Greece
(Laboratory of Ioannis S. Vizirianakis, Associate Professor in Molecular Pharmacology and
Pharmacogenomics) (<25 passages was applied). […]
Cell line MRC-5 information
ID/Proper Citation: (RRID:CVCL_0440)
URL: https://web.expasy.org/cellosaurus/CVCL_0440

A further data set addresses T1, recombinant HIV-1 RT (Human immunodeficiency virus type 1 group M subtype B, UniProt P04585).
T1 construct: recombinant HIV-1 RT; purchased Roche
Put plainly: HIV-1 RT RDDP inhibitory activity (Roche colorimetric immunoassay kit). It counts as biochemical. As to the method:
As described in our previous work, HIV-1 reverse transcriptase (RT) activity was measured using the Roche colorimetric immunoassay kit. DNA synthesis by RT was quantified after 2 h incubation at 37 °C. The reaction included PolyA:oligodT RNA template, recombinant HIV-1 RT, and various substrates, with biotin-DIG-labeled DNA detected via streptavidin-coated ELISA wells. Inhibitor activity was tested by pre-incubating RT with compounds before substrate addition. The absorbance at 405 nm was measured to calculate enzyme activity and IC50 values. […] The experiment was performed in triplicate. The data analysis for obtaining the IC50 values and standard deviation (SD)was performed using nonlinear regression analysis, specifically fitting the dose–response curves to a sigmoidal model (log(inhibitor) vs. response) using the software GraphPad Prism 10.

In data set [2] the target is T2, HIV-1 RT-associated RNase H (Human immunodeficiency virus type 1 group M subtype B, UniProt P04585).
T2 construct: quantification of RNase H activity of reverse transcriptase (RT) enzyme
Put plainly: RT RNase H polymerase-independent cleavage assay. The format is biochemical. As to the method: The HIV-1 RT-associated RNase H activity was measured following the protocol cited by the detection and quantification of RNase H activity of reverse transcriptase (RT) enzyme with a hybrid substrate formed by a fluorescein labeled RNA annealed with Dabcyl DNA. In this assay the reaction mixture containing tris–HCl, pH 7.8, MgCl2, dithiothreitol (DTT), KCl, hybrid RNA/DNA (5′-[…]-3′-fluorescein,5′-[…]-3′-Dabcyl), and RT were incubated for 1 h at 37 °C, the reaction was stopped by the addition of EDTA, and products were measured with a Victor 3 (Perkin PerkinElmer VICTOR X3 Multilabel Counter Microplate Reader, Cridersville, OH, USA ) at 490/528 nm. The experiment was performed in triplicate. IC50 values were determined through nonlinear regression analysis, where the dose–response curves were fitted to a sigmoidal model (log(inhibitor) vs. response) using GraphPad Prism 10 software.

Data set [3] addresses T2, HIV-1 RT-associated RNase H. Further details: method as in PMID 25092689. The following applies: cited from earlier work.
Another data set concerns HIV-1. As to conditions: cited from earlier work.

Where two headings read alike, the source gives them in different places.

For `O=C1CSC(c2ccc(F)cc2)N1c1cccc(S(=O)(=O)Nc2nccs2)c1` (stereo not shown) [Compound 1, 3-(2-(4-Fluorophenyl)-4-oxothiazolidin-3-yl)-N-(thiazol-2-yl)benzenesulfonamide], in data set [1], the viability at 24 h, 10 µM is above 50%. The figures for the IC50 (at recombinant HIV-1 RT; in data set [2]) were 2.23 ± 0.15 µM and 14.3 ± 1.3 µM, respectively. Further, the inhibition at 4 µM on recombinant HIV-1 RT worked out at 68.3%.

`O=C1CSC(c2ccc(F)cc2)N1c1nc(-c2cccc(S(=O)(=O)N3CCCC3)c2)cs1` (stereo not shown) [Compound 2, 2-(4-Fluorophenyl)-3-(4-(3-(pyrrolidin-1-ylsulfonyl)phenyl)thiazol-2-yl)thiazolidin-4-one]: the viability at 24 h, 10 µM in data set [1] is above 50%. For the same compound, at recombinant HIV-1 RT, the IC50 is above 4 µM and the inhibition at 4 µM turned out to be 8.36%. The compound further registered an IC50 in data set [2] above 50 µM.

Turning to `O=C1CSC(c2c(F)cccc2F)N1c1nc(-c2cccc(S(=O)(=O)N3CCCC3)c2)cs1` (stereo not shown) [Compound 3, 2-(2,6-Difluorophenyl)-3-(4-(3-(pyrrolidin-1-ylsulfonyl)phenyl)thiazol-2-yl)thiazolidin-4-one], in data set [1], the viability at 24 h, 10 µM is above 50%. Also, at recombinant HIV-1 RT, the IC50 is above 4 µM and the inhibition at 4 µM was 24.3%. The IC50 in data set [2] is above 50 µM.

With `COc1ccc(OC)c(C2SCC(=O)N2c2nc(-c3cccc(S(=O)(=O)N4CCCC4)c3)cs2)c1` (stereo not shown) [Compound 4, 2-(2,5-Dimethoxyphenyl)-3-(4-(3-(pyrrolidin-1-ylsulfonyl)phenyl)thiazol-2-yl)thiazolidin-4-one], the viability at 24 h, 10 µM in data set [1] is above 50%. Besides, on recombinant HIV-1 RT, the IC50 came to 0.58 ± 0.07 µM and the inhibition at 4 µM is 86.6%. In data set [2], this compound registered an IC50 of 1.47 ± 0.2 µM.

The compound `O=C1CSC(c2ccccc2O)N1c1nc(-c2cccc(S(=O)(=O)N3CCCC3)c2)cs1` (stereo not shown) [Compound 5, 2-(2-Hydroxyphenyl)-3-(4-(3-(pyrrolidin-1-ylsulfonyl)phenyl)thiazol-2-yl)thiazolidin-4-one] displayed a viability at 24 h, 10 µM in data set [1] above 50%. Also, the half-maximal inhibitory concentration (IC50) is above 4 µM at recombinant HIV-1 RT and 18 ± 2.1 µM in data set [2]. Further, the inhibition at 4 µM at recombinant HIV-1 RT is 45.2%.

For `COc1ccc(OC)c(C2SCC(=O)N2c2nc(-c3ccc(S(=O)(=O)N4CCOCC4)cc3)cs2)c1` (stereo not shown) [Compound 6, 2-(2,5-Dimethoxyphenyl)-3-(4-(4-(morpholinosulfonyl)phenyl)thiazol-2-yl)thiazolidin-4-one], the viability at 24 h, 10 µM in data set [1] is above 50%. For the same compound, at recombinant HIV-1 RT, the IC50 amounted to 0.72 ± 0.06 µM and the inhibition at 4 µM is 81.3%. Moreover, in data set [2], half-maximal inhibition (IC50) required 2.5 ± 0.3 µM.

The compound `O=C1CSC(c2ccc(F)cc2)N1c1nc(-c2ccc(S(=O)(=O)N3CCOCC3)cc2)cs1` (stereo not shown) [Compound 7, 2-(4-Fluorophenyl)-3-(4-(4-(morpholinosulfonyl)phenyl)thiazol-2-yl)thiazolidin-4-one] returned a viability at 24 h, 10 µM in data set [1] above 50%. Moreover, at recombinant HIV-1 RT, the IC50 was above 4 µM and the inhibition at 4 µM is 12%. The compound also had an IC50 in data set [2] above 50 µM.

As to `O=C1CSC(c2c(F)cccc2F)N1c1nc(-c2ccc(S(=O)(=O)N3CCOCC3)cc2)cs1` (stereo not shown) [Compound 8, 2-(2,6-Difluorophenyl)-3-(4-(4-(morpholinosulfonyl)phenyl)thiazol-2-yl)thiazolidin-4-one], in data set [1], the viability at 24 h, 10 µM is above 50%. At recombinant HIV-1 RT, the IC50 was above 4 µM and the inhibition at 4 µM is 33%. Moreover, in data set [2], the IC50 was above 50 µM.

As for `O=C1CSC(c2c(Cl)cccc2Cl)N1c1nc(-c2ccc(S(=O)(=O)N3CCOCC3)cc2)cs1` (stereo not shown) [Compound 9, 2-(2,6-Dichlorophenyl)-3-(4-(4-(morpholinosulfonyl)phenyl)thiazol-2-yl)thiazolidin-4-one], the viability at 24 h, 10 µM in data set [1] is above 50%. Besides, the IC50 on recombinant HIV-1 RT is above 4 µM; in data set [2] it was 9.01 ± 0.1 µM. On recombinant HIV-1 RT, the inhibition at 4 µM was 2.48%.

Compound `O=C1CSC(c2c(Cl)cccc2Cl)N1c1nc(-c2ccc(F)cc2)cs1` (stereo not shown) [Compound 10, 2-(2,6-Dichlorophenyl)-3-(4-(4-fluorophenyl)thiazol-2-yl)thiazolidin-4-one] displayed a viability at 24 h, 10 µM in data set [1] above 50%. For the same compound, on recombinant HIV-1 RT, the IC50 is above 4 µM and the inhibition at 4 µM is 1.59%. In addition, the IC50 in data set [2] is above 50 µM.

Compound `O=C1CSC(c2c(F)cccc2Cl)N1c1nc2ccc(C(F)(F)F)cc2s1` (stereo not shown) [Compound 11, 2-(2-Chloro-6-fluorophenyl)-3-(6-(trifluoromethyl)benzo[d]thiazol-2-yl)thiazolidin-4-one] yielded a viability at 24 h, 10 µM in data set [1] above 50%. The IC50 came out at 0.32 ± 0.03 µM on recombinant HIV-1 RT and 25.4 ± 0.4 µM in data set [2]. Besides, the inhibition at 4 µM on recombinant HIV-1 RT worked out at 92.4%.

As for `O=C1CSC(c2c(F)cccc2F)N1c1nc(-c2ccc(F)cc2)cs1` (stereo not shown) [Compound 12, 2-(2,6-Difluorophenyl)-3-(4-(4-fluorophenyl)thiazol-2-yl)thiazolidin-4-one], the viability at 24 h, 10 µM in data set [1] is above 50%. Besides, at recombinant HIV-1 RT, the IC50 was above 4 µM and the inhibition at 4 µM came out at 5.86%. Besides, the IC50 in data set [2] is above 50 µM.

In data set [1], `N#Cc1ccc2nc(N3C(=O)CSC3c3c(F)cccc3F)sc2c1` (stereo not shown) [Compound 13, 2-(2-(2,6-Difluorophenyl)-4-oxothiazolidin-3-yl)benzo[d]thiazole-6-carbonitrile] came in with a viability at 24 h, 10 µM of 55%. Further, the figures for the IC50 (on recombinant HIV-1 RT; in data set [2]) were above 4 µM and 16.4 ± 1.7 µM, respectively. On recombinant HIV-1 RT, the inhibition at 4 µM amounted to 21.4%.

In data set [1], `O=C1CSC(c2c(F)cccc2F)N1c1nc2cc(-c3ccccc3)c(-c3ccccc3)cc2s1` (stereo not shown) [Compound 14, 2-(2,6-Difluorophenyl)-3-(5,6-diphenylbenzo[d]thiazol-2-yl)thiazolidin-4-one] had a viability at 24 h, 10 µM above 50%. On recombinant HIV-1 RT, the IC50 is above 4 µM and the inhibition at 4 µM amounted to 7.9%. The IC50 in data set [2] was above 50 µM.

In turn, `O=C1CSC(c2c(Cl)cccc2Cl)N1c1nc2ccc(C(F)(F)F)cc2s1` (stereo not shown) [Compound 15, 2-(2,6-Dichlorophenyl)-3-(6-(trifluoromethyl)benzo[d]thiazol-2-yl)thiazolidin-4-one] yielded a viability at 24 h, 10 µM in data set [1] of 57.9%. Moreover, on recombinant HIV-1 RT, the IC50 was above 4 µM and the inhibition at 4 µM turned out to be 8.52%. Besides, the IC50 in data set [2] was above 50 µM.

`Cc1ccnc2c1NC(=O)c1cccnc1N2C1CC1` [Nevirapine, reference compound]: the inhibition at 4 µM on recombinant HIV-1 RT is 93.8%.

For `CCOC(=O)C(=O)CC(=O)/C=C/c1cccn1Cc1ccccc1Cl` [RDS1759], the IC50 in data set [3] (reference inhibitor) was 7.3 ± 0.1 µM. Besides, the “Inhibition of RNase H activity” value in data set [3] (selective) is reported as “low micromolar range”. Also, in the data set with HIV-1, the “Inhibition of viral replication” value was “low micromolar range”.
